Source: paper PMC8286840, “Identifying SARS-CoV-2 antiviral compounds by screening for small molecule inhibitors of Nsp3 papain-like protease” (Biochemical Journal, 2021)
Where a name gives a salt, the structure may show the parent alone. Read-outs that look alike come from different tables or passages of the source.

What was measured:
[1] = molecular target: T1, SARS-CoV-2 PLpro (nsp3 1564–1878) (Severe acute respiratory syndrome coronavirus 2, UniProt P0DTD1); test: biochemical; design: FRET-quenched peptide (Pro3) cleavage by PLpro, 10 min pre-incubation, slope over 20 min, normalised to no-compound control; conditions: high concentration screen, read-out: % of control remaining
[2] = molecular target: T1, SARS-CoV-2 PLpro (nsp3 1564–1878); test: biochemical; design: FRET-quenched peptide (Pro3) cleavage by PLpro, 10 min pre-incubation, slope over 20 min, normalised to no-compound control; conditions: low concentration screen, read-out: % of control remaining

With `N#CN=C(NCCCCCCOc1ccc(Cl)cc1)Nc1ccncc1` [GMX1778 (CHS828)] the remaining activity at 3.75 µM ([1]; Well no.=8486) was 95.9% and the remaining activity at 1.25 µM ([2]; Well no.=8486) was 93.1%.

`CCCC[N+]1(C)[C@@H]2C[C@@H](OC(=O)[C@H](CO)c3ccccc3)C[C@H]1[C@@H]1O[C@@H]12` (stereo partly shown) [Scopolamine N-butylbromide] showed a remaining activity at 3.75 µM ([1]; Well no.=3355) of 98.9% and a remaining activity at 1.25 µM ([2]; Well no.=3355) of 99.9%.

In the case of `O=C(O)Cc1c[nH]c2ccccc12` [Indole-3-acetic acid], the remaining activity at 3.75 µM ([1]; Well no.=3667) is reported as 104% and the remaining activity at 1.25 µM ([2]; Well no.=3667) is reported as 101%.

`N#C[C@@H]1C[C@@H]2C[C@@H]2N1C(=O)[C@@H](N)C12CC3CC(CC(O)(C3)C1)C2` [Saxagliptin hydrate] gave a remaining activity at 3.75 µM ([1]; Well no.=8254) of 102% and a remaining activity at 1.25 µM ([2]; Well no.=8254) of 104%.

For `CN[C@@H]1[C@@H](O[C@H]2O[C@H](CO)[C@@H](N)[C@H](O)[C@H]2O)O[C@H]2C[C@@H](N)[C@@H](O[C@H]3[C@H](O)[C@@H](O)[C@H](N)C[C@@H]3N)O[C@@H]2[C@@H]1O` [Apramycin], the remaining activity at 3.75 µM ([1]; Well no.=2127) was 102% and the remaining activity at 1.25 µM ([2]; Well no.=2127) was 99.8%.

With `C[C@H]1CNCCc2ccc(Cl)cc21` [Lorcaserin (Hydrochloride)] the remaining activity at 3.75 µM ([1]; Well no.=6954) was 93.7% and the remaining activity at 1.25 µM ([2]; Well no.=6954) was 99.1%.

`COC(=O)[C@H](Cc1c[nH]c2ccccc12)N(Cc1ccccc1)Cc1ccccc1` [TRPM8 antagonist 2] was tested, and the remaining activity at 3.75 µM ([1]; Well no.=7732) was 97.5% and the remaining activity at 1.25 µM ([2]; Well no.=7732) was 95.3%.

Compound `C/C=C/C/C=C/CCC(=O)[C@H]1O[C@H]1C(N)=O` [Cerulenin] has a remaining activity at 3.75 µM ([1]; Well no.=3137) of 102% and a remaining activity at 1.25 µM ([2]; Well no.=3137) of 93%.

Work on `COc1cc(NS(=O)(=O)c2ccc(N)cc2)nc(OC)n1` [Sulfadimethoxine] yielded a remaining activity at 3.75 µM ([1]; Well no.=2291) of 91.8%, a remaining activity at 3.75 µM ([1]; Well no.=8358) of 95.5% and a remaining activity at 1.25 µM ([2]; Well no.=2291) of 93.2%. It also gave a remaining activity at 1.25 µM ([2]; Well no.=8358) of 95.1%.

`COc1cc2nccc(Oc3ccc(NC(=O)NC4CC4)c(Cl)c3)c2cc1C(N)=O` [E7080] was tested, and the remaining activity at 3.75 µM ([1]; Well no.=2981) was 98.1% and the remaining activity at 1.25 µM ([2]; Well no.=2981) was 98%.

`CC(C)[C@@]1(NC(=O)[C@@H]2C[C@@H]3c4cccc5[nH]cc(c45)C[C@H]3N(C)C2)O[C@@]2(O)[C@@H]3CCCN3C(=O)[C@H](Cc3ccccc3)N2C1=O` [Dihydroergocristine methanesulfonate] showed a remaining activity at 3.75 µM ([1]; Well no.=404) of 101% and a remaining activity at 1.25 µM ([2]; Well no.=404) of 102%.

`C[N+](C)(C)CCO` [2-hydroxy-N,N,N-trimethylethanaminium chloride] showed a remaining activity at 3.75 µM ([1]; Well no.=5483) of 97.8% and a remaining activity at 1.25 µM ([2]; Well no.=5483) of 98.3%.

For `COc1ccccc1C(=O)O` [2-Methoxybenzoic acid], the remaining activity at 3.75 µM ([1]; Well no.=6583) was 101% and the remaining activity at 1.25 µM ([2]; Well no.=6583) was 103%.

Compound `CCCCCCCCCCCCCC(=O)O` [Tetradecanoic acid] has a remaining activity at 3.75 µM ([1]; Well no.=4266) of 95.8% and a remaining activity at 1.25 µM ([2]; Well no.=4266) of 102%.

Work on `COc1cc(SC)ccc1C(=O)N1CCC(Cc2ccccc2)CC1` [p38 MAP Kinase Inhibitor VI, JX401] yielded a remaining activity at 3.75 µM ([1]; Well no.=2529) of 105% and a remaining activity at 1.25 µM ([2]; Well no.=2529) of 101%.

With `CC(=O)Nc1ccc(NC(=S)NC(=O)c2ccc(C(C)(C)C)cc2)cc1` [p53 Activator (Tenovin-1)] the remaining activity at 3.75 µM ([1]; Well no.=2901) was 96.4% and the remaining activity at 1.25 µM ([2]; Well no.=2901) was 97.7%.

`CN(C)CCN1C(=O)c2ccccc2N(C)c2ccccc21` [Dibenzepine] gave a remaining activity at 3.75 µM ([1]; Well no.=2096) of 99.6% and a remaining activity at 1.25 µM ([2]; Well no.=2096) of 97%.

For `CCn1cc(C(=O)O)c(=O)c2cc(F)c(N3CCNCC3)cc21` [Norfloxacin], the remaining activity at 3.75 µM ([1]; Well no.=2043) was 105% and the remaining activity at 1.25 µM ([2]; Well no.=2043) was 109%.

Compound `O=c1cc(-c2ccccc2)oc2cc(O)cc(O)c12` [Chrysine] has a remaining activity at 3.75 µM ([1]; Well no.=3276) of 100% and a remaining activity at 1.25 µM ([2]; Well no.=3276) of 101%.

`CN(C)C(N)=NCCC[C@H](N)C(=O)O` [N^G,N^G-Dimethylarginine hydrochloride] was tested, and the remaining activity at 3.75 µM ([1]; Well no.=689) was 97% and the remaining activity at 1.25 µM ([2]; Well no.=689) was 97%.

In the case of `CC1(C)CNc2cc(NC(=O)c3cccnc3NCc3ccncc3)ccc21` [Motesanib], the remaining activity at 3.75 µM ([1]; Well no.=2697) is reported as 103% and the remaining activity at 1.25 µM ([2]; Well no.=2697) is reported as 104%.

With `CCCCOc1ccc(CC(=O)NO)cc1` [Bufexamac] the remaining activity at 3.75 µM ([1]; Well no.=5265) was 99.5% and the remaining activity at 1.25 µM ([2]; Well no.=5265) was 101%.

`NC(N)=NOCC[C@H](N)C(=O)O` [L-Canavanine sulfate] showed a remaining activity at 3.75 µM ([1]; Well no.=382) of 96.4% and a remaining activity at 1.25 µM ([2]; Well no.=382) of 88.7%.

`CNC(=O)c1cc2c(cn1)[nH]c1ccccc12` [N-Methyl-beta-carboline-3-carboxamide] was tested, and the remaining activity at 3.75 µM ([1]; Well no.=655) was 94.2% and the remaining activity at 1.25 µM ([2]; Well no.=655) was 96.4%.

Compound `Cn1c([N+](=O)[O-])cnc1COC(N)=O` [Ronidazole] has a remaining activity at 3.75 µM ([1]; Well no.=4700) of 96.7% and a remaining activity at 1.25 µM ([2]; Well no.=4700) of 99.8%.

Work on `CN(C)C(=O)[C@H](O)[C@H](Cc1ccccc1)NC(=O)c1cc2cc(Cl)ccc2[nH]1` [CP-91149] yielded a remaining activity at 3.75 µM ([1]; Well no.=5021) of 104% and a remaining activity at 1.25 µM ([2]; Well no.=5021) of 101%.

Compound `CN(C)CCC(c1ccc(Br)cc1)c1ccccn1` (stereo not shown) [Brompheniramine] has a remaining activity at 3.75 µM ([1]; Well no.=5292) of 96.1% and a remaining activity at 1.25 µM ([2]; Well no.=5292) of 99%.

With `CC(=O)N[C@@H](CC(=O)O)C(=O)O` [N-Acetyl-L-aspartic acid] the remaining activity at 3.75 µM ([1]; Well no.=6645) was 98.5%, the remaining activity at 3.75 µM ([1]; Well no.=7690) was 96.5% and the remaining activity at 1.25 µM ([2]; Well no.=6645) was 98.3%. For the same compound, the remaining activity at 1.25 µM ([2]; Well no.=7690) was 101%.

`COCCCN1CCC(NC(=O)c2cc(Cl)c(N)c3c2OCC3)CC1` [Prucalopride] gave a remaining activity at 3.75 µM ([1]; Well no.=4835) of 98.1%, a remaining activity at 3.75 µM ([1]; Well no.=8143) of 101% and a remaining activity at 1.25 µM ([2]; Well no.=4835) of 99.7%. For the same compound, the remaining activity at 1.25 µM ([2]; Well no.=8143) was 103%.

Work on `O=NN(CCCl)C(=O)NCCCl` [Carmustine] yielded a remaining activity at 3.75 µM ([1]; Well no.=137) of 102% and a remaining activity at 1.25 µM ([2]; Well no.=137) of 102%.

In the case of `O=C1C(=O)N(Cc2ccc(-c3ccccc3)cc2)c2ccc(OC(F)(F)F)cc21` [VU 0365114], the remaining activity at 3.75 µM ([1]; Well no.=8036) is reported as 94.8% and the remaining activity at 1.25 µM ([2]; Well no.=8036) is reported as 97.4%.

With `COC(=O)[C@H]1[C@H]2C[C@H]3c4[nH]c5cc(OC)ccc5c4CCN3C[C@H]2C[C@@H](OC(=O)c2cc(OC)c(OC)c(OC)c2)[C@@H]1OC` [(-)-Isoreserpine] the remaining activity at 3.75 µM ([1]; Well no.=3246) was 100% and the remaining activity at 1.25 µM ([2]; Well no.=3246) was 102%.

Compound `COc1ccc(C[C@H](C)NC[C@@H](O)c2ccc(O)c(NC=O)c2)cc1` [Formoterol (Fumarate)] has a remaining activity at 3.75 µM ([1]; Well no.=6413) of 95.1% and a remaining activity at 1.25 µM ([2]; Well no.=6413) of 101%.

`COC(=O)/C(=C1/OC(=O)C(c2ccccc2)=C1O)c1ccccc1` [Vulpinic acid] showed a remaining activity at 3.75 µM ([1]; Well no.=3513) of 104% and a remaining activity at 1.25 µM ([2]; Well no.=3513) of 102%.

`COc1cc2c(CCNC(C)=O)c[nH]c2cc1Cl` [6-Chloromelatonin] gave a remaining activity at 3.75 µM ([1]; Well no.=89) of 101% and a remaining activity at 1.25 µM ([2]; Well no.=89) of 98.5%.
